Measured values reported in patent US20140213506A1, “THYMOSIN ALPHA PEPTIDE FOR PREVENTING, REDUCING THE SEVERITY OF, AND TREATING INFECTION” (priority 2011, published 2014).
No end group written: not given here.

Experiments:
[1] = TA1 0.3-1.2 mg/kg/dose i.p. with Fluvirin
[2] = cited from earlier work
[3] = cited from earlier work; remark: listed apart in the source
[4] = doses as high as 800 times the recommended human dose; cited from earlier work
[5] = TA1 0.28 or 0.57 mg/kg s.c. with vaccine
Experimental: The vaccine (either Agrippal influPozzi seasonal vaccine, non-adjuvanted, or Fluad, MF-59 adjuvanted) was administered via intramuscular injection to the right leg at a full human dose of 0.5 mL. TA1 (0.285 or 0.570 mg/kg/dose) was administered by the subcutaneous route at a dose volume that, using a scaling factor for ferret/human dosing, corresponding to approximate human doses of 3.2 or 6.4 mg/kg. Animals were observed twice daily for mortality, general health, and both local and systemic signs of toxicity and illness as well as behavior under the responsibility of a professional veterinarian. Body weights were recorded prior to dosing only.

Ac-SDAAVDTSSEITTKDLKEKKEVVEEAEN [TA1, (N-acetyl)-Ser-Asp-Ala-Ala-Val-Asp-Thr-Ser-Ser-Glu-11e-Thr-Thr-Lys-Asp-Leu-Lys-Glu-Lys-Lys-Glu-Val-Val-Glu-Glu-Ala-Glu-Asn-OH]
clinical/cageside observations and body weight effects [1]: no test article-related clinical/cageside observations or body weight effects
survival [1]: All animals survived until scheduled termination
worsening of side effects in combination ([2]; TA1 combined with other agents such as interferon and chemotherapy): Nor has there been any worsening of side effects
drug-related side effects ([2]; more than 3,000 patients (adults, elderly, children; hepatitis B and C, primary immunodeficiency, cancers)): virtually no drug-related side effects
Peak plasma levels ([3]; after injection of 3.2 mg of TA1 (about 40 μg/kg)): approximately 100 ng/ml
half-life of TA1 in the circulation ([3]; in vivo): about 2 hours
plasma half-life ([3]; subcutaneously injected TA1): about two
adverse clinical signs [4]: no evidence of adverse clinical signs
safety and tolerability, cage-side observations [5]: safe and well-tolerated
